# Source: US8143398B1, “Activity of new N-acylated ciprofloxacin derivatives against faculative intracellular bacteria” (University of South Florida, priority 2010, dated 2012)
# Assays:
# [1] = test system: intracellular Bartonella henselae Houston-1; experiment: Assay for intracellular activity in infected HMEC-1 cells; format: cell-based
# Method: HMEC-1 cells were maintained in MCDB131 medium supplemented with 10% FBS, 5% L-glutamine, 10 ng/mL epidermal growth factor, 1 μg/mL hydrocortisone, penicillin/streptomycin and amphotericin B. HMEC-1 cells were infected with Bartonella henselae Houston-1 at a multiplicity of infection (MOI) of 100 for 4 hour in medium without ciprofloxacin-derived compounds. After infection, the cells were washed 2× with PBS and then treated with gentamicin (200 μg/mL) for 1 hour. Infected cells were washed as before and medium containing ciprofloxacin-derived compound was added at concentrations of 0.1 μg/mL, 1.0 μg/mL and 10 μg/mL. Infected cells were then incubated for 24, 48 and 96 hour. Ciprofloxacin-derived compounds were then removed, and the infected cells were washed as before and lysed with 0.1% saponin Lysates were plated on chocolate agar. After incubation for 8 days, CFU's were counted to determine the number of viable intracellular bacteria.
# Bartonella strains = experiment: Agar dilution testing (MIC); format: cell-based; conditions: growth read after 1 week
# Method: Agar was prepared with the N-acyl ciprofloxacin-derived compounds at concentrations of 10 μg/mL, 1.0 μg/mL and 0.1 μg/mL. An equivalent volume of DMSO was added to a control plate. Nine strains of Bartonella were harvested from 4-day-old plates, resuspended in 1.0 mL sterile HIB and adjusted to a McFarland 2.0 turbidity standard. Using a specific template, 12.5 μL of broth suspensions of each Bartonella strain was pipetted onto each of the fluoroquinalone compound-containing chocolate agar plates and the DMSO control plate. After 1 week, the growth of each Bartonella strain was examined and recorded.
smiles,measurement,setting,value
CCC(=O)N1CCN(c2cc3c(cc2F)c(=O)c(C(=O)O)cn3C2CC2)CC1 [RC4-147],activity against intracellular bacteria,[1],significant activity against intracellular bacteria
same,decrease in CFUs (intracellular colony forming units),[1]; infected HMEC cells treated with 1.0 μg/mL for 24 hours,greater than a tenfold decrease
CC(C)(C)C(=O)N1CCN(c2cc3c(cc2F)c(=O)c(C(=O)O)cn3C2CC2)CC1 [RC5-32],activity against intracellular bacteria,[1],significant activity against intracellular bacteria
CCCC(=O)N1CCN(c2cc3c(cc2F)c(=O)c(C(=O)O)cn3C2CC2)CC1 [RC5-29],activity against intracellular bacteria,[1],significant activity against intracellular bacteria
CC(=O)N1CCN(c2cc3c(cc2F)c(=O)c(C(=O)N2CCN(c4cc5c(cc4F)c(=O)c(C(=O)O)cn5C4CC4)CC2)cn3C2CC2)CC1 [RC5-69],activity against intracellular bacteria,[1],significant activity against intracellular bacteria
CC(=O)N1CCN(c2cc3c(cc2F)c(=O)c(C(=O)O)cn3C2CC2)CC1 [RC4-125],MIC (minimal inhibitory concentration),Bartonella strains,1.0 to 10.0 µg/mL
same,activity against intracellular bacteria,[1],significant activity against intracellular bacteria
CCC(C)(C)C(=O)N1CCN(c2cc3c(cc2F)c(=O)c(C(=O)O)cn3C2CC2)CC1 [RC4-143],MIC (minimal inhibitory concentration),Bartonella strains,0.1 to 0.5 µg/mL
same,activity against intracellular bacteria,[1],significant activity against intracellular bacteria
